Consider six compounds from ChEMBL document CHEMBL5338795, “Novel Triazoles with Potent and Broad-Spectrum Antifungal Activity In Vitro and In Vivo” (J Med Chem, 2023).

Data set [1] relates to Candida albicans. Briefly: Antifungal activity against Candida albicans SC5314 assessed as reduction in fungal growth incubated for 24 hrs by CLSI based microdilution analysis. The class given is functional. (In general: Dilution methods test growth across graded concentrations, often in twofold steps.)
Data set [2] deals with Meyerozyma guilliermondii. Briefly: Antifungal activity against Meyerozyma guilliermondii ATCC 6260 assessed as reduction in fungal growth incubated for 24 hrs by CLSI based microdilution analysis. The class given is functional.
A further data set relates to Candida parapsilosis. In words: Antifungal activity against Candida parapsilosis ATCC 22019 assessed as reduction in fungal growth incubated for 24 hrs by CLSI based microdilution analysis. It is filed as functional. The conditions noted are these: Lodderomyces parapsilosis.
The test system of a further data set is Candida tropicalis. In words: Antifungal activity against Candida tropicalis ATCC 750 assessed as reduction in fungal growth incubated for 24 hrs by CLSI based microdilution analysis. It is filed as functional.
The next data set has as its system Nakaseomyces glabratus. In words: Antifungal activity against Candida glabrata ATCC 15126 assessed as reduction in fungal growth incubated for 24 hrs by CLSI based microdilution analysis. The class given is functional.
The test system of the next data set is Cryptococcus neoformans. Briefly: Antifungal activity against Cryptococcus neoformans CGMCC3 1563 assessed as reduction in fungal growth incubated for 72 hrs by CLSI based microdilution analysis. It is filed as functional.
The next data set relates to Aspergillus fumigatus. In words: Antifungal activity against Aspergillus fumigatus CGMCC3 7795 assessed as reduction in fungal growth incubated for 48 hrs by CLSI based microdilution analysis. The class given is functional.
The test system of data set [3] is Candida albicans. In words: Antifungal activity against fluconazole-resistant Candida albicans 102 assessed as inhibition of fungal growth measured for 24 hrs by CLSI based microdilution analysis. It is filed as functional.
Data set [4] deals with Candida albicans. In words: Antifungal activity against fluconazole-resistant Candida albicans 13 assessed as inhibition of fungal growth measured for 24 hrs by CLSI based microdilution analysis. The class given is functional.
Data set [5] deals with Candida albicans. In words: Antifungal activity against fluconazole-resistant Candida albicans 15 assessed as inhibition of fungal growth measured for 24 hrs by CLSI based microdilution analysis. The class given is functional.
Data set [6] deals with Candida albicans. In words: Antifungal activity against fluconazole-resistant Candida albicans 901 assessed as inhibition of fungal growth measured for 24 hrs by CLSI based microdilution analysis. It is filed as functional.
In data set [7] the test system is Candida albicans. In words: Antifungal activity against fluconazole-resistant Candida albicans 24D assessed as inhibition of fungal growth measured for 24 hrs by CLSI based microdilution analysis. It is filed as functional.
Data set [8] deals with Candida albicans. Briefly: Antifungal activity against fluconazole-resistant Candida albicans 112869 assessed as inhibition of fungal growth measured for 24 hrs by CLSI based microdilution analysis. It is filed as functional.
The test system of data set [9] is Candida albicans. Briefly: In-vivo antifungal activity against Candida albicans […] infected in skin infected ICR mouse model assessed as wound healing at 1 mg/kg, ip pretreated for 24 hrs followed by infection and measured for 5 days. The conditions noted are these: time 144.0 hrs. It is filed as functional, organism-based.
Data set [10] has as its system Candida albicans. Briefly: In-vivo antifungal activity against Candida albicans […] infected in skin infected ICR mouse model assessed as reduction in fungal burden in skin at 1 mg/kg, ip pretreated for 24 hrs followed by infection and measured for 5 days by Periodic acid-Schiff staining based analysis. The conditions noted are these: time 144.0 hrs. The class given is functional, organism-based.

Data set [11] concerns Candida albicans. In words: Potency index, ratio of fluconazole MIC80 to test compound MIC for antifungal activity against Candida albicans SC5314 assessed as reduction in fungal growth incubated for 24 hrs by CLSI based microdilution analysis. It is filed as functional.
Data set [12] has as its system Candida albicans. In words: Potency index, ratio of voriconazole MIC80 to test compound MIC for antifungal activity against Candida albicans SC5314 assessed as reduction in fungal growth incubated for 24 hrs by CLSI based microdilution analysis. The class given is functional.
Data set [13] has as its system Candida albicans. In words: Potency index, ratio of itraconazole MIC80 to test compound MIC for antifungal activity against Candida albicans SC5314 assessed as reduction in fungal growth incubated for 24 hrs by CLSI based microdilution analysis. It is filed as functional.
Data set [14] is described as follows: Hemolytic activity in mouse RBC assessed as hemolysis at 100 microg/ml incubated for 60 mins relative to control. It is filed as toxicity, cell-based, Erythrocyte. The conditions noted are these: red blood cells (erythrocytes), at 100 µg/mL, read-out: Activity.
A further data set concerns CYP3A4. In words: Selectivity index, ratio of MIC80 for antifungal activity against Candida albicans to IC50 for inhibition of CYP3A4 in human liver microsomes. The class given is toxicity. The settings on record: read-out: Selectivity Index. (Microsomes from liver hold many membrane-bound enzymes, among them those of drug oxidation.)
In data set [15] the test system is Candida albicans. Briefly: Induction of resistance development in Candida albicans SC5314 assessed as increase in MIC treated over 8 serial passages by microdilution assay. The class given is functional.
For data set [16], the system named is Candida albicans. Briefly: Induction of resistance development in Candida albicans SC5314 assessed as fold increase in MIC treated over 20 serial passages by microdilution assay. The class given is functional.
Data set [17] addresses T1, Lanosterol 14-alpha demethylase (Candida albicans (strain SC5314 / ATCC MYA-2876) (Yeast), UniProt P10613). In words: Inhibition of CYP51 in Candida albicans […] assessed as decrease in ergosterol biosynthesis level at 1 times MIC80 incubated for 16 hrs by GC-MS analysis (Rvb=67.2%).
The target of data set [18] is T1, Lanosterol 14-alpha demethylase. Briefly: Inhibition of CYP51 in Candida albicans […] assessed as decrease in unknown sterol biosynthesis level at 1 times MIC80 incubated for 16 hrs by GC-MS analysis relative to control.
Another data set concerns the target Cytochrome P450 3A4 (Homo sapiens, UniProt P08684). In words: Inhibition of CYP3A4 in human liver microsomes using testosterone as substrate preincubated for 5 mins followed by NADPH addition and measured after 5 mins by LC-MS/MS analysis. The class given is ADME, Microsome.

Structures are written as SMILES. Values after ≈ are worked out from the molar mass of the structure shown. Active and inactive are the calls of the source. The calls are words filed in the database; no cut-off is given here.

T1 sequence (P10613 whole entry): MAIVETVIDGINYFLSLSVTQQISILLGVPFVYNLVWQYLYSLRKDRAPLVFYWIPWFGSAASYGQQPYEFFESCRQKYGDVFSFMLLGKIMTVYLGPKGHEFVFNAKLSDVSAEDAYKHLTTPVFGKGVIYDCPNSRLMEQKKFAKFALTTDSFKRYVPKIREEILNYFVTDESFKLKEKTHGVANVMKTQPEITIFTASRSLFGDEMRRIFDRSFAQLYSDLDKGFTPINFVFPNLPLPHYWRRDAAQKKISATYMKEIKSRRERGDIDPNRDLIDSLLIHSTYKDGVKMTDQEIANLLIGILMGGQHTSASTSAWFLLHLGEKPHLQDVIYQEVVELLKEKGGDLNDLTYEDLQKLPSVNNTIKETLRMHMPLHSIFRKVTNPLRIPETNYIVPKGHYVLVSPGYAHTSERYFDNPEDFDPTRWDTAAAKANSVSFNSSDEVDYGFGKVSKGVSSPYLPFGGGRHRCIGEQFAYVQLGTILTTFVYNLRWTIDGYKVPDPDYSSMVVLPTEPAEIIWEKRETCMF
Cytochrome P450 3A4, sequence (P08684 whole entry): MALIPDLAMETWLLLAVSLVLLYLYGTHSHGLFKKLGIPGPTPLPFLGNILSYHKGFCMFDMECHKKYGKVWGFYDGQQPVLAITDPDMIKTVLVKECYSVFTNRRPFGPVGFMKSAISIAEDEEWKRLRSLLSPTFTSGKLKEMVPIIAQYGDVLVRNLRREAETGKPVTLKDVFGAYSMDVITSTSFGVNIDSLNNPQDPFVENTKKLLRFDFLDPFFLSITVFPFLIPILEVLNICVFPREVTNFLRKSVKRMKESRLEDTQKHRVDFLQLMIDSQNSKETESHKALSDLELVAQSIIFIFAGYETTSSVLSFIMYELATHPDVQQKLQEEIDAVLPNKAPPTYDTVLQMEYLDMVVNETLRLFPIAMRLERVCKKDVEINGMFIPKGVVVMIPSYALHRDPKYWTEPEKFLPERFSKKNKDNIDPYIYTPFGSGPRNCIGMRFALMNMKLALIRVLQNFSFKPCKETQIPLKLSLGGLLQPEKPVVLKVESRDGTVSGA

On to `COc1ccc2c(ccn2CCCN2CCN(CC(O)(Cn3cncn3)c3ccc(F)cc3F)CC2)c1` (centres undefined), for which the MIC80 in the data set with Candida albicans [1] turned out to be 0.062 µg/mL (≈ 0.121 µM); in data set [2], 0.125 µg/mL (≈ 0.245 µM); with Candida parapsilosis, 0.062 µg/mL (≈ 0.121 µM); in the data set on Candida tropicalis it was 0.625 µg/mL (≈ 1.22 µM); in the data set with Nakaseomyces glabratus it was 0.312 µg/mL (≈ 0.611 µM); with Cryptococcus neoformans, 0.125 µg/mL (≈ 0.245 µM). The MIC80 was determined as 5 µg/mL (≈ 9.79 µM) with Aspergillus fumigatus; 0.062 µg/mL (≈ 0.121 µM) in the data set on Candida albicans [3]; 0.062 µg/mL (≈ 0.121 µM) in the data set on Candida albicans [4]; 0.625 µg/mL (≈ 1.22 µM) in the data set with Candida albicans [5]; 5 µg/mL (≈ 9.79 µM) in the data set with Candida albicans [6]; 0.125 µg/mL (≈ 0.245 µM) with Candida albicans [7]. In the data set on Candida albicans [8], the MIC80 is 0.25 µg/mL (≈ 0.49 µM).
For `N#C/C(=C1/SC[C@@H](c2ccc(Cl)cc2Cl)S1)n1ccnc1`, the outcome with Candida albicans [9] was inactive. In addition, the outcome in the data set on Candida albicans [10] was Active.
On to `OC(CN1CCN(CCn2ccc3cc(Br)ccc32)CC1)(Cn1cncn1)c1ccc(F)cc1F` (centres undefined), for which the MIC80 in the data set on Candida albicans [1] was 0.015 µg/mL (≈ 0.0275 µM); in data set [2], 0.015 µg/mL (≈ 0.0275 µM); in the data set with Candida parapsilosis, 0.015 µg/mL (≈ 0.0275 µM); with Candida tropicalis, 0.156 µg/mL (≈ 0.286 µM); in the data set with Nakaseomyces glabratus it was 0.156 µg/mL (≈ 0.286 µM); with Cryptococcus neoformans, 0.015 µg/mL (≈ 0.0275 µM). Moreover, the MIC80 amounted to 0.625 µg/mL (≈ 1.15 µM) in the data set with Aspergillus fumigatus; 0.015 µg/mL (≈ 0.0275 µM) in the data set on Candida albicans [3]; 0.015 µg/mL (≈ 0.0275 µM) in the data set on Candida albicans [4]; 0.312 µg/mL (≈ 0.572 µM) with Candida albicans [5]; 1.25 µg/mL (≈ 2.29 µM) in the data set with Candida albicans [6]; 0.031 µg/mL (≈ 0.0568 µM) in the data set on Candida albicans [7]. In the data set on Candida albicans [8], the MIC80 was determined as 0.062 µg/mL (≈ 0.114 µM). Moreover, the Ratio in the data set with Candida albicans [11] is on record as 32; with Candida albicans [12], 4; with Candida albicans [13], 4. Also, the hemolysis at 1 h, 100 microg/ml in data set [14] is 1.2%.
For `OC(Cn1cncn1)(Cn1cncn1)c1ccc(F)cc1F` [FLUCONAZOLE], the MIC80 in the data set on Candida albicans [1] was 0.5 µg/mL (≈ 1.63 µM); in data set [2] it was 1.25 µg/mL (≈ 4.08 µM); in the data set on Candida parapsilosis it was 1.25 µg/mL (≈ 4.08 µM); in the data set on Candida tropicalis it was 2.5 µg/mL (≈ 8.16 µM); in the data set on Nakaseomyces glabratus it was 2.5 µg/mL (≈ 8.16 µM); in the data set with Cryptococcus neoformans it was 1.25 µg/mL (≈ 4.08 µM). Moreover, the MIC80 in the data set with Aspergillus fumigatus was more than 100 µg/mL; in the data set on Candida albicans [3], more than 100 µg/mL; with Candida albicans [4], more than 100 µg/mL; in the data set on Candida albicans [5], 32 µg/mL (≈ 104 µM); with Candida albicans [6] it was more than 100 µg/mL; with Candida albicans [7] it was more than 100 µg/mL. Moreover, the MIC80 in the data set on Candida albicans [8] is more than 100 µg/mL. Besides, the hemolysis at 1 h, 100 microg/ml in data set [14] is 1.7%. Besides, in the data set with CYP3A4, the selectivity ratio came out at 25. The “fold change (FC)” value in the data set with Candida albicans [15] was 10; with Candida albicans [16] it was 100. Besides, the “inhibition (INH)” value in data set [17] is listed as 17.61%; in data set [18], 24.78%.
With `OC(CN1CCN(CCCn2ccc3cc(Br)ccc32)CC1)(Cn1cncn1)c1ccc(F)cc1F` (centres undefined), the MIC80 in the data set with Candida albicans [1] amounted to 0.031 µg/mL (≈ 0.0554 µM); in data set [2], 0.015 µg/mL (≈ 0.0268 µM); with Candida parapsilosis, 0.062 µg/mL (≈ 0.111 µM); with Candida tropicalis, 0.312 µg/mL (≈ 0.558 µM); in the data set with Nakaseomyces glabratus it was 0.312 µg/mL (≈ 0.558 µM); in the data set with Cryptococcus neoformans it was 0.031 µg/mL (≈ 0.0554 µM). The MIC80 in the data set with Aspergillus fumigatus was 0.625 µg/mL (≈ 1.12 µM); in the data set on Candida albicans [3], 0.062 µg/mL (≈ 0.111 µM); in the data set on Candida albicans [4] it was 0.031 µg/mL (≈ 0.0554 µM); with Candida albicans [5] it was 1.25 µg/mL (≈ 2.23 µM); with Candida albicans [6], 1.25 µg/mL (≈ 2.23 µM); with Candida albicans [7] it was 0.062 µg/mL (≈ 0.111 µM). In addition, the MIC80 in the data set with Candida albicans [8] amounted to 0.125 µg/mL (≈ 0.223 µM). The hemolysis at 1 h, 100 microg/ml in data set [14] worked out at 5.9%. On Cytochrome P450 3A4, this compound displayed an IC50 of 130 nM.
As to `OC(CN1CCN(CCCn2ccc3ccc(Br)cc32)CC1)(Cn1cncn1)c1ccc(F)cc1F` (centres undefined), the MIC80 with Candida albicans [1] was 0.062 µg/mL (≈ 0.111 µM); in data set [2], 0.031 µg/mL (≈ 0.0554 µM); with Candida parapsilosis, 0.062 µg/mL (≈ 0.111 µM); in the data set on Candida tropicalis it was 0.312 µg/mL (≈ 0.558 µM); in the data set on Nakaseomyces glabratus, 0.312 µg/mL (≈ 0.558 µM); in the data set with Cryptococcus neoformans, 0.031 µg/mL (≈ 0.0554 µM). Also, the MIC80 in the data set with Aspergillus fumigatus stood at 1.25 µg/mL (≈ 2.23 µM); in the data set with Candida albicans [3] it was 0.125 µg/mL (≈ 0.223 µM); with Candida albicans [4], 0.031 µg/mL (≈ 0.0554 µM); with Candida albicans [5] it was 2.5 µg/mL (≈ 4.47 µM); with Candida albicans [6], 2.5 µg/mL (≈ 4.47 µM); in the data set with Candida albicans [7] it was 0.125 µg/mL (≈ 0.223 µM). The MIC80 with Candida albicans [8] turned out to be 0.5 µg/mL (≈ 0.894 µM).

As a reminder, the MIC80 is the lowest concentration that inhibits either 80% of growth or 80% of the strains tested, depending on the study. For orientation: IC50 means the point on the concentration scale where inhibition reaches its midpoint.
